Test system: 171881-019-R-J1-PDC complex spheroid viability
Experiment: Anticancer human tumor 171881-019-R-J1-PDC patient-derived invasive breast carcinoma cell line growth inhibition
Conditions: for IC50: curve of first compound; for viability, T/C: stronger effect = lower value
Method in brief: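 Drug combinations with the LSD1 inhibitor iadademstat tested on tumor cells co-cultured as spheroids with endothelial cells and mesenchymal stem cells. Concentrations descended in half-log increments from clinical Cmax or 10 microM.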

[1] = second compound 0.1 µM, first compound 0.000316 µM
[2] = second compound 0.1 µM, first compound 0.001 µM
[3] = second compound 0.1 µM, first compound 0.00316 µM
[4] = second compound 0.1 µM, first compound 0.01 µM
[5] = second compound 0.1 µM, first compound 0.0316 µM
[6] = second compound 0.1 µM, first compound 0.1 µM
[7] = second compound 0.316 µM, first compound 0.000316 µM
[8] = second compound 0.316 µM, first compound 0.001 µM
[9] = second compound 0.316 µM, first compound 0.00316 µM
[10] = second compound 0.316 µM, first compound 0.01 µM
[11] = second compound 0.316 µM, first compound 0.0316 µM
[12] = second compound 0.316 µM, first compound 0.1 µM
[13] = second compound 1 µM, first compound 0.000316 µM
[14] = second compound 1 µM, first compound 0.001 µM
[15] = second compound 1 µM, first compound 0.00316 µM
[16] = second compound 1 µM, first compound 0.01 µM
[17] = second compound 1 µM, first compound 0.0316 µM
[18] = second compound 1 µM, first compound 0.1 µM
[19] = second compound 3.16 µM, first compound 0.000316 µM
[20] = second compound 3.16 µM, first compound 0.001 µM
[21] = second compound 3.16 µM, first compound 0.00316 µM
[22] = second compound 3.16 µM, first compound 0.01 µM
[23] = second compound 3.16 µM, first compound 0.0316 µM
[24] = second compound 3.16 µM, first compound 0.1 µM
[25] = second compound 10 µM, first compound 0.000316 µM
[26] = second compound 10 µM, first compound 0.001 µM
[27] = second compound 10 µM, first compound 0.00316 µM
[28] = second compound 10 µM, first compound 0.01 µM
[29] = second compound 10 µM, first compound 0.0316 µM
[30] = second compound 10 µM, first compound 0.1 µM
[31] = second compound 0.1 µM, first compound 0.00949 µM
[32] = second compound 0.1 µM, first compound 0.03 µM
[33] = second compound 0.1 µM, first compound 0.0949 µM
[34] = second compound 0.1 µM, first compound 0.3 µM
[35] = second compound 0.1 µM, first compound 0.949 µM
[36] = second compound 0.1 µM, first compound 3 µM
[37] = second compound 0.316 µM, first compound 0.00949 µM
[38] = second compound 0.316 µM, first compound 0.03 µM
[39] = second compound 0.316 µM, first compound 0.0949 µM
[40] = second compound 0.316 µM, first compound 0.3 µM
[41] = second compound 0.316 µM, first compound 0.949 µM
[42] = second compound 0.316 µM, first compound 3 µM
[43] = second compound 1 µM, first compound 0.00949 µM
[44] = second compound 1 µM, first compound 0.03 µM
[45] = second compound 1 µM, first compound 0.0949 µM
[46] = second compound 1 µM, first compound 0.3 µM
[47] = second compound 1 µM, first compound 0.949 µM
[48] = second compound 1 µM, first compound 3 µM
[49] = second compound 3.16 µM, first compound 0.00949 µM
[50] = second compound 3.16 µM, first compound 0.03 µM
[51] = second compound 3.16 µM, first compound 0.0949 µM
[52] = second compound 3.16 µM, first compound 0.3 µM
[53] = second compound 3.16 µM, first compound 0.949 µM
[54] = second compound 3.16 µM, first compound 3 µM
[55] = second compound 10 µM, first compound 0.00949 µM
[56] = second compound 10 µM, first compound 0.03 µM
[57] = second compound 10 µM, first compound 0.0949 µM
[58] = second compound 10 µM, first compound 0.3 µM
[59] = second compound 10 µM, first compound 0.949 µM
[60] = second compound 10 µM, first compound 3 µM
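Further: spheroids exposed to agents for 7 days after 3 days growth.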

CC(C)CC(NC(=O)C(Cc1ccccc1)NC(=O)c1cnccn1)B(O)O (stereo not given) + NC1CC1c1ccc(-c2cccc(O)c2)cc1
IC50 (second compound 0.1 µM): < 0.000316 µM
IC50 (second compound 0.316 µM): < 0.000316 µM
IC50 (second compound 1 µM): < 0.000316 µM
IC50 (second compound 3.16 µM): < 0.000316 µM
IC50 (second compound 10 µM): < 0.000316 µM
viability, T/C [1]: 22.8%
viability, T/C [2]: 21.4%
viability, T/C [3]: 16.4%
viability, T/C [4]: 10.8%
viability, T/C [5]: 9.75%
viability, T/C [6]: 13.1%
viability, T/C [7]: 24.2%
viability, T/C [8]: 8.57%
viability, T/C [9]: 10.7%
viability, T/C [10]: 11%
viability, T/C [11]: 13.4%
viability, T/C [12]: 9.51%
viability, T/C [13]: 23.8%
viability, T/C [14]: 18.2%
viability, T/C [15]: 6.24%
viability, T/C [16]: 7.73%
viability, T/C [17]: 7.79%
viability, T/C [18]: 7.59%
viability, T/C [19]: 3.29%
viability, T/C [20]: 4.7%
viability, T/C [21]: 3.45%
viability, T/C [22]: 8.88%
viability, T/C [23]: 6.7%
viability, T/C [24]: 5.34%
viability, T/C [25]: 5.61%
viability, T/C [26]: 8.2%
viability, T/C [27]: 0.52%
viability, T/C [28]: 3.61%
viability, T/C [29]: 8.57%
viability, T/C [30]: 1.8%

CC(C)CC(NC(=O)CNC(=O)c1cc(Cl)ccc1Cl)B1OC(=O)CC(CC(=O)O)(C(=O)O)O1 (stereo not given) + NC1CC1c1ccc(-c2cccc(O)c2)cc1
IC50 (second compound 0.1 µM): 0.000885 µM
IC50 (second compound 0.316 µM): 0.00106 µM
IC50 (second compound 1 µM): 0.000719 µM
IC50 (second compound 3.16 µM): < 0.000316 µM
IC50 (second compound 10 µM): < 0.000316 µM
viability, T/C [1]: 95%
viability, T/C [2]: 35.5%
viability, T/C [3]: 38.4%
viability, T/C [4]: 23%
viability, T/C [5]: 5.32%
viability, T/C [6]: 15.9%
viability, T/C [7]: 91.9%
viability, T/C [8]: 49.9%
viability, T/C [9]: 28.8%
viability, T/C [10]: 24.4%
viability, T/C [11]: 13.9%
viability, T/C [12]: 11.5%
viability, T/C [13]: 76.5%
viability, T/C [14]: 39.3%
viability, T/C [15]: 16.2%
viability, T/C [16]: 8.02%
viability, T/C [17]: 11.6%
viability, T/C [18]: 5.3%
viability, T/C [19]: 43.9%
viability, T/C [20]: 42.6%
viability, T/C [21]: 6.48%
viability, T/C [22]: 6.09%
viability, T/C [23]: 12.3%
viability, T/C [24]: 12.9%
viability, T/C [25]: 19.6%
viability, T/C [26]: 24.7%
viability, T/C [27]: 1.13%
viability, T/C [28]: 4.15%
viability, T/C [29]: 4.16%
viability, T/C [30]: 4.12%

COc1cc(Nc2ncc3c(n2)-c2ccc(Cl)cc2C(c2c(F)cccc2OC)=NC3)ccc1C(=O)O + NC1CC1c1ccc(-c2cccc(O)c2)cc1
IC50 (second compound 0.1 µM): 0.442 µM
IC50 (second compound 0.316 µM): 0.506 µM
IC50 (second compound 1 µM): 0.517 µM
IC50 (second compound 3.16 µM): 0.38 µM
IC50 (second compound 10 µM): 0.301 µM
viability, T/C [3]: 59.8%
viability, T/C [4]: 67.3%
viability, T/C [5]: 64.1%
viability, T/C [6]: 62.7%
viability, T/C (second compound 0.1 µM, first compound 0.316 µM): 58.5%
viability, T/C (second compound 0.1 µM, first compound 1 µM): 29.4%
viability, T/C [9]: 60.5%
viability, T/C [10]: 68.1%
viability, T/C [11]: 68%
viability, T/C [12]: 65.7%
viability, T/C (second compound 0.316 µM, first compound 0.316 µM): 61.9%
viability, T/C (second compound 0.316 µM, first compound 1 µM): 32.6%
viability, T/C [15]: 67.2%
viability, T/C [16]: 70%
viability, T/C [17]: 68.7%
viability, T/C [18]: 69.2%
viability, T/C (second compound 1 µM, first compound 0.316 µM): 63.2%
viability, T/C (second compound 1 µM, first compound 1 µM): 31.9%
viability, T/C [21]: 71.3%
viability, T/C [22]: 75.5%
viability, T/C [23]: 72.5%
viability, T/C [24]: 69.1%
viability, T/C (second compound 3.16 µM, first compound 0.316 µM): 54.7%
viability, T/C (second compound 3.16 µM, first compound 1 µM): 25.4%
viability, T/C [27]: 59.4%
viability, T/C [28]: 61%
viability, T/C [29]: 64.1%
viability, T/C [30]: 56.9%
viability, T/C (second compound 10 µM, first compound 0.316 µM): 49.9%
viability, T/C (second compound 10 µM, first compound 1 µM): 25.3%

NS(=O)(=O)OCC1CC(n2ccc3c(NC4CCc5ccccc54)ncnc32)CC1O (stereo not given) + NC1CC1c1ccc(-c2cccc(O)c2)cc1
IC50 (second compound 0.1 µM): 0.0103 µM
IC50 (second compound 0.316 µM): 0.0113 µM
IC50 (second compound 1 µM): 0.0101 µM
IC50 (second compound 3.16 µM): 0.0128 µM
IC50 (second compound 10 µM): < 0.00949 µM
viability, T/C [31]: 51.1%
viability, T/C [32]: 36.4%
viability, T/C [33]: 26.7%
viability, T/C [34]: 27.4%
viability, T/C [35]: 27.1%
viability, T/C [36]: 23.3%
viability, T/C [37]: 52.9%
viability, T/C [38]: 36.4%
viability, T/C [39]: 31.3%
viability, T/C [40]: 28.1%
viability, T/C [41]: 31.8%
viability, T/C [42]: 21.4%
viability, T/C [43]: 51.3%
viability, T/C [44]: 27.4%
viability, T/C [45]: 27.8%
viability, T/C [46]: 30%
viability, T/C [47]: 27.5%
viability, T/C [48]: 21.9%
viability, T/C [49]: 56.5%
viability, T/C [50]: 31.2%
viability, T/C [51]: 26%
viability, T/C [52]: 24.1%
viability, T/C [53]: 26.9%
viability, T/C [54]: 21.1%
viability, T/C [55]: 45.1%
viability, T/C [56]: 30.6%
viability, T/C [57]: 27.1%
viability, T/C [58]: 27.6%
viability, T/C [59]: 25.4%
viability, T/C [60]: 19.5%

Nc1ccccc1NC(=O)c1ccc(CNC(=O)OCc2cccnc2)cc1 + NC1CC1c1ccc(-c2cccc(O)c2)cc1
IC50 (second compound 0.1 µM): 0.525 µM
IC50 (second compound 0.316 µM): 0.53 µM
IC50 (second compound 1 µM): 0.52 µM
IC50 (second compound 3.16 µM): 0.481 µM
IC50 (second compound 10 µM): 0.441 µM
viability, T/C [31]: 101%
viability, T/C [32]: 96.2%
viability, T/C [33]: 107%
viability, T/C [34]: 89.4%
viability, T/C [35]: 8.16%
viability, T/C [36]: 0.69%
viability, T/C [37]: 104%
viability, T/C [38]: 102%
viability, T/C [39]: 109%
viability, T/C [40]: 90.8%
viability, T/C [41]: 8.21%
viability, T/C [42]: 0.84%
viability, T/C [43]: 101%
viability, T/C [44]: 103%
viability, T/C [45]: 107%
viability, T/C [46]: 88.6%
viability, T/C [47]: 7.91%
viability, T/C [48]: 0.77%
viability, T/C [49]: 100%
viability, T/C [50]: 102%
viability, T/C [51]: 90.8%
viability, T/C [52]: 80.6%
viability, T/C [53]: 6.04%
viability, T/C [54]: 0.79%
viability, T/C [55]: 88%
viability, T/C [56]: 82.6%
viability, T/C [57]: 82.3%
viability, T/C [58]: 70.9%
viability, T/C [59]: 8.68%
viability, T/C [60]: 0.61%

O=C(C=Cc1cccc(S(=O)(=O)Nc2ccccc2)c1)NO + NC1CC1c1ccc(-c2cccc(O)c2)cc1
IC50 (second compound 0.1 µM): 0.382 µM
IC50 (second compound 0.316 µM): 0.404 µM
IC50 (second compound 1 µM): 0.419 µM
IC50 (second compound 3.16 µM): 0.389 µM
IC50 (second compound 10 µM): 0.309 µM
viability, T/C [31]: 99.8%
viability, T/C [32]: 104%
viability, T/C [33]: 102%
viability, T/C [34]: 63.1%
viability, T/C [35]: 1.03%
viability, T/C [36]: 0.11%
viability, T/C [37]: 100%
viability, T/C [38]: 98.5%
viability, T/C [39]: 100%
viability, T/C [40]: 67%
viability, T/C [41]: 1.15%
viability, T/C [42]: 0.13%
viability, T/C [43]: 104%
viability, T/C [44]: 103%
viability, T/C [45]: 103%
viability, T/C [46]: 69.9%
viability, T/C [47]: 1.32%
viability, T/C [48]: 0.23%
viability, T/C [49]: 92%
viability, T/C [50]: 89.5%
viability, T/C [51]: 97.2%
viability, T/C [52]: 64.3%
viability, T/C [53]: 1.09%
viability, T/C [54]: 0.11%
viability, T/C [55]: 77%
viability, T/C [56]: 73.5%
viability, T/C [57]: 85.6%
viability, T/C [58]: 51.4%
viability, T/C [59]: 0.76%
viability, T/C [60]: 0.14%

— PubChem BioAssay AID1918932 (Molecular Pharmacology Branch, DTP, NCI, 2023)
